Measurements from US9272987B2, “Diazeniumdiolate cyclohexyl derivatives” (Merck Sharp & Dohme Corp., priority 2011, dated 2016).

System: Male beagle dogs
Assay: canine telemetry protocol, blood pressure reduction efficacy
Assay type: in vivo
Conditions: change from baseline, 3 mg/kg oral gavage; for ΔPP (mmHg) 1-6 h / ΔPP (mmHg) 6-12 h / ΔPP (mmHg) 12-18 h: pulse pressure; for ΔSBP (mmHg) 1-6 h / ΔSBP (mmHg) 6-12 h / ΔSBP (mmHg) 12-18 h: systolic blood pressure
Description: Compounds of the invention were evaluated for blood pressure reduction efficacy using the following canine telemetry protocol described below.
Male beagle dogs (approximately 1-3 years old) with a body weight of between 10 and 16 kg were surgically implanted with DSI radiotelemetry devices (model: TL11M2-D70-PCT). Briefly, under an inhalant anesthesia, isoflurane/oxygen mixture (1-3.5%/to effect), the body of the telemetry device was positioned and secured intra-abdominally. Subsequently, the arterial catheter of the telemetry device was passed subcutaneously to the inguinal area and introduced into the femoral artery and advanced to the level of the descending aorta. The catheter was secured with 2-0 silk ligatures. The muscle and underlying fascia was closed over the catheter using absorbable suture and the skin was closed using non-absorbable suture. The animals were allowed a minimum recovery period of 2 weeks between surgery and the evaluation of test compounds.
Compound evaluation consisted of a 3 day paradigm at a 3 mg/kg dose. On the first day, no compounds were administered during a 24 hour period of baseline data collection. Blood pressure and heart rate data were collected continuously for one minute periods at 10 minute intervals. On the days of compound administration half the animals received test article with the other half receiving the vehicle used for compound formulation. All test materials were administered by oral gavage in a volume of 1 mL/kg. Data are expressed either as raw values (mm Hg or beats per minute) or as the change from baseline (average value for about 12 hours in low activity period prior to dosing). Change is SBP (systolic blood pressure) and PP (pulse pressure) over time is shown below: […]

Compound | ΔPP (mmHg) 1-6 h [mmHg] | ΔPP (mmHg) 6-12 h [mmHg] | ΔPP (mmHg) 12-18 h [mmHg] | ΔSBP (mmHg) 1-6 h [mmHg] | ΔSBP (mmHg) 6-12 h [mmHg] | ΔSBP (mmHg) 12-18 h [mmHg]
CN(/[N+]([O-])=N/OC1CCCCC1)C(C)(C)C [Example 2] | −9 | −11 | −12 | −11 | −9 | −9
CN(/[N+]([O-])=N/OC1CCC(F)(F)CC1)C(C)(C)C [Example 9, O^2-(4,4-difluorocyclohexyl) 1-(N-tert-butyl-N-methylamino)diazen-1-ium-1,2-diolate] | −7 | −8 | −8 | −8 | −12 | −13
O^2-(trans-4-hydroxy-4-phenylcyclohexyl) 1-(N-tert-butyl-N-methylamino)diazen-1-ium-1,2-diolate [Example 19] | −7 | −9 | −9 | −11 | −12 | −15
O^2-(trans-4-phenylcyclohexyl) 1-(N-tert-butyl-N-methylamino)diazen-1-ium-1,2-diolate [Example 33] | −7 | −12 | −11 | −9 | −15 | −9
